Experimental data reported in patent US8592629B2, “Sulfonamide derivatives as Nav 1.7 inhibitors” (Pfizer Limited, priority 2010, dated 2013).

Biological target: T1, Nav1.7 (or SCN9A) channel (Homo sapiens, UniProt Q15858)
T1 construct: expressed in transfected cells
Assay: Nav1.7 (hSCN9A) block in HEK cells, PatchXpress 7000 automated electrophysiology, estimated IC50 (EIC50)
Assay type: cell-based
Settings: PatchXpress assay; HEK cells stably transfected with hSCN9A, voltage-clamped at V1/2 of inactivation
Experimental: The ability of the compounds of formula (I) to block the Nav1.7 (or SCN9A) channel were measured using the assay described below.
Human Embryonic Kidney (HEK) cells were transfected with an hSCN9A construct using lipofectamine reagent (Invitrogen), using standard techniques. Cells stably expressing the hSCN9A constructs were identified by their resistance to G-418 (400 μg/ml). Clones were screened for expression using the whole-cell voltage-clamp technique.
HEK cells stably transfected with hSCN9A were maintained in DMEM medium supplemented with 10% heat-inactivated fetal bovine serum and 400 μg/ml G-418 in an incubator at 37° C. with a humidified atmosphere of 10% CO2. For HTS, cells were harvested from flasks by trypsinization and replated in an appropriate multi-well plate (typically 96 or 384 wells/plate) such that confluence would be achieved within 24 hours of plating. For electrophysiological studies, cells were removed from the culture flask by brief trypsinization and re-plated at low density onto glass cover slips. Cells were typically used for electrophysiological experiments within 24 to 72 hours after plating.
HEK cells stably transfected with hSCN9A were viewed under Hoffman contrast optics and placed in front of an array of flow pipes emitting either control or compound-containing extracellular solutions. All compounds were dissolved in dimethyl sulfoxide to make 10 mM stock solutions, which were then diluted into extracellular solution to attain the final concentrations desired. […] The voltage-dependence of inactivation was determined by applying a series of depolarizing prepulses (8 sec long in 10 mV increments) from a negative holding potential. The voltage was then immediately stepped to 0 mV to assess the magnitude of the sodium current. Currents elicited at 0 mV were plotted as a function of prepulse potential to allow estimation of the voltage at which 50% of the channels were inactivated (midpoint of inactivation or V1/2). Compounds were tested for their ability to inhibit hSCN9A sodium channels by activating the channel with a 20 msec voltage step to 0 mV following an 8 second conditioning prepulse to the empirically determined V1/2. Compound effect (% inhibition) was determined by difference in current amplitude before and after application of test compounds. For ease of comparison, “estimated IC-50” (EIC50) values were calculated from single point electrophysiology data by the following equation, (tested concentration, uM) X (100-% inhibition/% inhibition). Inhibition values <20% and >80% were excluded from the calculation.
Electrophysiological assays were conducted with PatchXpress 7000 hardware and associated software (Molecular Devices Corp). All assay buffers and solutions were identical to those used in conventional whole-cell voltage clamp experiments described above. hSCN9A cells were grown as above to 50%-80% confluency and harvested by trypsinization. Trypsinized cells were washed and resuspended in extracellular buffer at a concentration of 1×10^6 cells/ml. The onboard liquid handling facility of the PatchXpress was used for dispensing cells and application of test compounds. Determination of the voltage midpoint of inactivation was as described for conventional whole-cell recordings. Cells were then voltage-clamped to the empirically determined V1/2 and current was activated by a 20 msec voltage step to 0 mV.
Compounds of the Examples were tested in the assays described above and found to have the Nav1.7 EIC50 (μM) values specified in the table below. All data are derived from the PatchXpress assay unless explicitly stated otherwise.

T1 sequence (Q15858 whole entry): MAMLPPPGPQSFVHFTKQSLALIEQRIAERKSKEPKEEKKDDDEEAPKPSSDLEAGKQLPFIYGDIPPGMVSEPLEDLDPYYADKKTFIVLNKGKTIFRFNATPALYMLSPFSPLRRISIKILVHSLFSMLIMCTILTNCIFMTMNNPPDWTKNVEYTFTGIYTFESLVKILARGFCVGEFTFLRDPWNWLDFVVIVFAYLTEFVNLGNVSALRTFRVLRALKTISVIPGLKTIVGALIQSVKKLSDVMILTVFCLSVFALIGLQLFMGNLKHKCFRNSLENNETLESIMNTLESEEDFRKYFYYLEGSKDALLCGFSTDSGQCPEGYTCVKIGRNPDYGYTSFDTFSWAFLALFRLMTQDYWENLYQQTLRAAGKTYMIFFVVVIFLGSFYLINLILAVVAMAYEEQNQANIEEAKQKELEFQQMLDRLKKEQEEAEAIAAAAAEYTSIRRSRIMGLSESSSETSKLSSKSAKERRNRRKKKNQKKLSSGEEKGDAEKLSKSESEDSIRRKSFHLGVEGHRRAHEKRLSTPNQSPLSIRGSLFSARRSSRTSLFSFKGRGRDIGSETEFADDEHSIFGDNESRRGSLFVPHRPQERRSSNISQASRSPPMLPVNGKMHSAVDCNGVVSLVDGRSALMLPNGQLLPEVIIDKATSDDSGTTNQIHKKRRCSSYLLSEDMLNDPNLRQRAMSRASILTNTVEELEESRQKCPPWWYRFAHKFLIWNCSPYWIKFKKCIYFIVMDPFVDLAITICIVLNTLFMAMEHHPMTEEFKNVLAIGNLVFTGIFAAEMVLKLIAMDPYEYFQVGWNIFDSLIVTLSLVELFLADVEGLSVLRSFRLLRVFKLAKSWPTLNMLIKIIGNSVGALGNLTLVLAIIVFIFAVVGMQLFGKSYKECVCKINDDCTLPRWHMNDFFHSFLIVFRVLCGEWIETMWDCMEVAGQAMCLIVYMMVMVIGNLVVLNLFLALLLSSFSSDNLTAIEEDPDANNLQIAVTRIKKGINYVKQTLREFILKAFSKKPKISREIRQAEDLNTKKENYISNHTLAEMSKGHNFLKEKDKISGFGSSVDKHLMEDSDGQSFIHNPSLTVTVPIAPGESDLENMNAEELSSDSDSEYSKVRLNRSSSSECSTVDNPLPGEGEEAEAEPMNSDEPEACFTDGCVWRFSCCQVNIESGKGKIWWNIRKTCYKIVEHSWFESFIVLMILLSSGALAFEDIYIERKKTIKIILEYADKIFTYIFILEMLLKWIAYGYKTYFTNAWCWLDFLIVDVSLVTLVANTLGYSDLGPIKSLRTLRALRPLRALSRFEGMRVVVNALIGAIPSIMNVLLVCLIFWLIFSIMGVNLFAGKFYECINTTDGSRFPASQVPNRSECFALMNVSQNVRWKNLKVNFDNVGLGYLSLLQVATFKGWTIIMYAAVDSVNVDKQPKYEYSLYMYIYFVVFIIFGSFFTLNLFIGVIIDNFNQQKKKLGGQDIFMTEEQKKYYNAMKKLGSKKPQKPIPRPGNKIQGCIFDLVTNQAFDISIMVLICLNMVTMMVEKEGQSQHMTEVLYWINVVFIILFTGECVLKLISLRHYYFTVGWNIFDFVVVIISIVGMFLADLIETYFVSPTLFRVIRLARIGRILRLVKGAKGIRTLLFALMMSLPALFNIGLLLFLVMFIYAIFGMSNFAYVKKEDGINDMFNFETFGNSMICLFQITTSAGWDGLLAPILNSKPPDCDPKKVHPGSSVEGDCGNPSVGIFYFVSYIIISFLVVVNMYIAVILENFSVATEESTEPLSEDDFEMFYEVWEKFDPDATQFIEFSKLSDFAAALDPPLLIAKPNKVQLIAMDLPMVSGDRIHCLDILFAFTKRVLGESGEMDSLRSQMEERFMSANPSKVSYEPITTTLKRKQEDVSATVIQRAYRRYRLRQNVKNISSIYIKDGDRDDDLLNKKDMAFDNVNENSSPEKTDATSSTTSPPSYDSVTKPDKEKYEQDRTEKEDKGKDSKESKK

SMILES | IC50 [nM]
COC[C@H](C)Nc1ncc(Oc2cc(F)c(C(=O)NS(C)(=O)=O)cc2F)cc1Cl [Example 136, 4-[(5-chloro-6-{[(1S)-2-methoxy-1-methylethyl]amino}pyridin-3-yl)oxy]-2,5-difluoro-N-(methylsulfonyl)benzamide] | 890
C[C@@H](Oc1ncc(Oc2cc(F)c(C(=O)NS(C)(=O)=O)cc2Cl)cc1Cl)C(F)(F)F [Example 99, 5-chloro-4-({5-chloro-6-[(1R)-2,2,2-trifluoro-1-methylethoxy]pyridin-3-yl}oxy)-2-fluoro-N-(methylsulfonyl)benzamide] | 15
CC1(COc2ncc(Oc3cc(F)c(C(=O)NS(C)(=O)=O)cc3F)cc2Cl)CC1 [Example 28, 4-({5-chloro-6-[(1-methylcyclopropyl)methoxy]pyridin-3-yl}oxy)-2,5-difluoro-N-(methylsulfonyl)benzamide] | 33
CC(C)Oc1ncc(Oc2cc(F)c(C(=O)NS(C)(=O)=O)cc2F)cc1F [Example 71, 2,5-difluoro-4-[(5-fluoro-6-isopropoxypyridin-3-yl)oxy]-N-(methylsulfonyl)benzamide] | 1700
CS(=O)(=O)NC(=O)c1cc(F)c(Oc2cnc(OC(CF)CF)c(Cl)c2)cc1F [Example 80, 4-({5-chloro-6-[2-fluoro-1-(fluoromethyl)ethoxy]pyridin-3-yl}oxy)-2,5-difluoro-N-(methylsulfonyl)benzamide] | 1500
CS(=O)(=O)NC(=O)c1cc(F)c(Oc2cnc(NC3CC3)c(Cl)c2)cc1F [Example 140, 4-{[5-chloro-6-(cyclopropylamino)pyridin-3-yl]oxy}-2,5-difluoro-N-(methylsulfonyl)benzamide] | 1600
CC1CCN(c2ncc(Oc3cc(F)c(C(=O)NS(C)(=O)=O)cc3F)cc2Cl)CC1 [Example 126, 4-{[5-chloro-6-(4-methylpiperidin-1-yl)pyridin-3-yl]oxy}-2,5-difluoro-N-(methylsulfonyl)benzamide] | 470
CS(=O)(=O)NC(=O)c1cc(F)c(Oc2cnc(N3C[C@H]4CC[C@@H]3C4)c(Cl)c2)cc1F [Example 131, 4-({6-[(1R,4S)-2-azabicyclo[2.2.1]hept-2-yl]-5-chloropyridin-3-yl}oxy)-2,5-difluoro-N-(methylsulfonyl)benzamide] | 71
CS(=O)(=O)NC(=O)c1cc(F)c(Oc2cnc(OC3CCOCC3)c(Cl)c2)cc1F [Example 24, 4-{[5-chloro-6-(tetrahydro-2H-pyran-4-yloxy)pyridin-3-yl]oxy}-2,5-difluoro-N-(methylsulfonyl)benzamide] | 780
CC(C)COc1ncc(Oc2ccc(C(=O)NS(C)(=O)=O)cc2)cc1Cl [Example 14, 4-[(5-Chloro-6-isobutoxypyridin-3-yl)oxy]-N-(methylsulfonyl)benzamide] | 140
CS(=O)(=O)NC(=O)c1cc(Cl)c(Oc2cnc(C3CCC3)c(Cl)c2)cc1F [Example 112, 5-chloro-4-(5-chloro-6-cyclobutylpyridin-3-yloxy)-2-fluoro-N-(methylsulfonyl)benzamide] | 19
CS(=O)(=O)NC(=O)c1cc(F)c(Oc2cnc(OCC(F)(F)C(F)F)c(Cl)c2)cc1F [Example 45, 4-{[5-chloro-6-(2,2,3,3-tetrafluoropropoxy)pyridin-3-yl]oxy}-2,5-difluoro-N-(methylsulfonyl)benzamide] | 110
CC(C)c1nccnc1Oc1cc(F)c(C(=O)NS(C)(=O)=O)cc1F [Example 193, 2,5-difluoro-4-[(3-isopropylpyrazin-2-yl)oxy]-N-(methylsulfonyl)benzamide] | 2100
C[C@@H]1CCCN1c1ncc(Oc2cc(F)c(C(=O)NS(C)(=O)=O)cc2F)cc1Cl [Example 132, 4-({5-chloro-6-[(2R)-2-methylpyrrolidin-1-yl]pyridin-3-yl}oxy)-2,5-difluoro-N-(methylsulfonyl)benzamide] | 160
CC(C)(F)COc1ncc(Oc2cc(F)c(C(=O)NS(C)(=O)=O)cc2Cl)cc1Cl [Example 57, 5-chloro-4-{[5-chloro-6-(2-fluoro-2-methylpropoxy)pyridin-3-yl]oxy}-2-fluoro-N-(methylsulfonyl)benzamide] | 94
CN(c1ncc(Oc2cc(F)c(C(=O)NS(C)(=O)=O)cc2F)cc1Cl)C1CCC1 [Example 133, 4-({5-chloro-6-[cyclobutyl(methyl)amino]pyridin-3-yl}oxy)-2,5-difluoro-N-(methylsulfonyl)benzamide] | 170
CS(=O)(=O)NC(=O)c1cc(F)c(Oc2cnc(N3CC(F)C3)c(Cl)c2)cc1F [Example 134, 4-{[5-chloro-6-(3-fluoroazetidin-1-yl)pyridin-3-yl]oxy}-2,5-difluoro-N-(methylsulfonyl)benzamide] | 580
COCC1CCCN1c1ncc(Oc2cc(F)c(C(=O)NS(C)(=O)=O)cc2F)cc1Cl (centres unmarked) [Example 121, 4-({5-chloro-6-[2-(methoxymethyl)pyrrolidin-1-yl]pyridin-3-yl}oxy)-2,5-difluoro-N-(methylsulfonyl)benzamide] | 680
CS(=O)(=O)NC(=O)c1cc(Cl)c(Oc2cnc(N3CC(F)(F)C3)c(Cl)c2)cc1F [Example 96, 5-Chloro-4-(5-chloro-6-(3,3-difluoroazetidin-1-yl)pyridin-3-yloxy)-2-fluoro-N-(methylsulfonyl)benzamide] | 73
CS(=O)(=O)NC(=O)c1cc(F)c(Oc2cnc(N3CCCC3)c(Cl)c2)cc1F [Example 146, 4-[(5-chloro-6-pyrrolidin-1-ylpyridin-3-yl)oxy]-2,5-difluoro-N-(methylsulfonyl)benzamide] | 76
CS(=O)(=O)NC(=O)c1cc(F)c(Oc2cnc(N3CCC(F)(F)C3)c(Cl)c2)cc1F [Example 123, 4-{[5-chloro-6-(3,3-difluoropyrrolidin-1-yl)pyridin-3-yl]oxy}-2,5-difluoro-N-(methylsulfonyl)benzamide] | 120
CC(C)Oc1ncc(Oc2ccc(C(=O)NS(C)(=O)=O)cc2Cl)cc1Cl [Example 82, 3-chloro-4-[(5-chloro-6-isopropoxypyridin-3-yl)oxy]-N-(methylsulfonyl)benzamide] | 42
CC(C)Oc1ncc(Oc2ccc(C(=O)NS(C)(=O)=O)cc2C#N)cc1Cl [Example 73, 4-[(5-chloro-6-isopropoxypyridin-3-yl)oxy]-3-cyano-N-(methylsulfonyl)benzamide] | 620
CC(C)Oc1ncc(Oc2ccc(C(=O)NS(C)(=O)=O)c(F)c2)cc1Cl [Example 36, 4-[(5-chloro-6-isopropoxypyridin-3-yl)oxy]-2-fluoro-N-(methylsulfonyl)benzamide] | 310
CS(=O)(=O)NC(=O)c1cc(F)c(Oc2cnc(N3CC(F)(F)C3)c(Cl)c2)cc1F [Example 130, 4-{[5-chloro-6-(3,3-difluoroazetidin-1-yl)pyridin-3-yl]oxy}-2,5-difluoro-N-(methylsulfonyl)benzamide] | 740
CS(=O)(=O)NC(=O)c1cc(Cl)c(Oc2cnc(OC3COC3)c(Cl)c2)cc1F [Example 10, 5-Chloro-4-{[5-chloro-6-(oxetan-3-yloxy)pyridin-3-yl]oxy}-2-fluoro-N-(methylsulfonyl)benzamide] | 900
CC(Oc1ncc(Oc2cc(F)c(C(=O)NS(C)(=O)=O)cc2F)cc1Cl)C(F)(F)F (centres unmarked) [Example 12, 4-{[5-Chloro-6-(2,2,2-trifluoro-1-methylethoxy)pyridin-3-yl]oxy}-2,5-difluoro-N-(methylsulfonyl)benzamide] | 120
CC(C)C(F)(F)c1ncc(Oc2cc(F)c(C(=O)NS(C)(=O)=O)cc2Cl)cc1Cl [Example 60, 5-chloro-4-{[5-chloro-6-(1,1-difluoro-2-methylpropyl)pyridin-3-yl]oxy}-2-fluoro-N-(methylsulfonyl)benzamide] | 140
CS(=O)(=O)NC(=O)c1cc(F)c(Oc2cnc(N3C[C@@H](F)[C@H](F)C3)c(Cl)c2)cc1F [Example 119, 4-({5-chloro-6-[(3R,4R)-3,4-difluoropyrrolidin-1-yl]pyridin-3-yl}oxy)-2,5-difluoro-N-(methylsulfonyl)benzamide] | 400
